These molecules were tested against T1, Recombinant human liver GK1 (GST-GK) (Homo sapiens, UniProt P35557) (assay: In vitro glucokinase activity, G6PDH-coupled spectrophotometric assay). Conditions: 5 mM D-glucose, 30° C., pH 7.1.
T1 construct: made in house; host or cells: E. coli
T1 sequence (P35557 1-466 isoform P35557-2): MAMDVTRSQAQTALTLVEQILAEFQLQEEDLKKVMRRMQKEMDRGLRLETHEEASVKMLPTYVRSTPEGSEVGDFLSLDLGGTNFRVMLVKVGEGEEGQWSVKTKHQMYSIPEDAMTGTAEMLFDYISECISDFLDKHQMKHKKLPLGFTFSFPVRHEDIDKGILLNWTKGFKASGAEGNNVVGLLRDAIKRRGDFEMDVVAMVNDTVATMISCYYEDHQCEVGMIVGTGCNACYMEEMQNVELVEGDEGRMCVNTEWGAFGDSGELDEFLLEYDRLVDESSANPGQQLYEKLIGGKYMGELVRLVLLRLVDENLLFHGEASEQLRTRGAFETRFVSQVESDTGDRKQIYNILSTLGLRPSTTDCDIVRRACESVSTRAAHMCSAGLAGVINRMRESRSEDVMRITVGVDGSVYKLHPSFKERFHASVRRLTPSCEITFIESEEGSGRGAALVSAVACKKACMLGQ
Format: biochemical
In short: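 GST-fused human liver GK1 from E. coli, run at 30° C. in pH 7.1 HEPES with 5 mM glucose, 1 mM ATP and 10% DMSO, coupled via G6PDH to NADH. OD340 rate measured after enzyme start; SC1.5 is the activator concentration raising activity 50% over DMSO control.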

Row | Compound | SC1.5 (concentration of activator that produced a 50% increase in the activity of GK)
1 | O=C1C(=O)N(C(CC2CCCC2)C(=O)Nc2nccs2)c2ccc(Cl)cc21 (stereo not drawn) [Example 92, 2-(5-Chloro-2,3-dioxo-2,3-dihydro-indol-1-yl)-3-cyclopentyl-N-thiazol-2-yl-propionamide] | 3.01 µM
2 | O=C1C(=O)N(C(CC2CCCC2)C(=O)Nc2ccn(C[C@@H](O)CO)n2)c2ccc(Cl)cc21 (stereo partly drawn) [Example 93, 2-(5-Chloro-2,3-dioxo-2,3-dihydro-indol-1-yl)-3-cyclopentyl-N-[1-((R)-2,3-dihydroxy-propyl)-1H-pyrazol-3-yl]-propionamide] | 3.36 µM
3 | O=C1C(=O)N(C(CC2CCCC2)C(=O)Nc2ccccn2)c2ccc(Cl)cc21 (stereo not drawn) [Example 94, 2-(5-Chloro-2,3-dioxo-2,3-dihydro-indol-1-yl)-3-cyclopentyl-N-pyridin-2-yl-propionamide] | 1.04 µM
4 | Cn1ccc(NC(=O)C(CC2CCCC2)N2C(=O)C(=O)c3cc(Cl)ccc32)n1 (stereo not drawn) [Example 95, 2-(5-Chloro-2,3-dioxo-2,3-dihydro-indol-1-yl)-3-cyclopentyl-N-(1-methyl-1H-pyrazol-3-yl)-propionamide] | 7.27 µM
5 | O=C1C(=O)N(C(CC2CCCC2)C(=O)Nc2cnccn2)c2ccc(Cl)cc21 (stereo not drawn) [Example 96, 2-(5-Chloro-2,3-dioxo-2,3-dihydro-indol-1-yl)-3-cyclopentyl-N-pyrazin-2-yl-propionamide] | 4.04 µM
6 | O=C(Nc1cnccn1)C(CC1CCCC1)N1C(=O)Cc2cc(Cl)ccc21 (stereo not drawn) [Example 97, 2-(5-Chloro-2-oxo-2,3-dihydro-indol-1-yl)-3-cyclopentyl-N-pyrazin-2-yl-propionamide] | 1.84 µM
7 | O=C(Nc1nccs1)C(CC1CCCC1)N1C(=O)Cc2cc(Cl)ccc21 (stereo not drawn) [Example 98, 2-(5-Chloro-2-oxo-2,3-dihydro-indol-1-yl)-3-cyclopentyl-N-thiazol-2-yl-propionamide] | 1.22 µM
8 | Cn1ccc(NC(=O)C(CC2CCCC2)N2C(=O)Cc3cc(Cl)ccc32)n1 (stereo not drawn) [Example 99, 2-(5-Chloro-2-oxo-2,3-dihydro-indol-1-yl)-3-cyclopentyl-N-(1-methyl-1H-pyrazol-3-yl)-propionamide] | 3.3 µM
9 | O=C(Nc1ccccn1)C(CC1CCCC1)N1C(=O)Cc2cc(Cl)ccc21 (stereo not drawn) [Example 100, 2-(5-Chloro-2-oxo-2,3-dihydro-indol-1-yl)-3-cyclopentyl-N-pyridin-2-yl-propionamide] | 0.49 µM
10 | CC(C)CC(C(=O)Nc1ccccn1)N1C(=O)C(=O)c2cc(Cl)ccc21 (stereo not drawn) [Example 102, 2-(5-Chloro-2,3-dioxo-2,3-dihydro-indol-1-yl)-4-methyl-pentanoic acid pyridin-2-ylamide] | 16.89 µM
11 | CC(C)CC(C(=O)Nc1nccs1)N1C(=O)Cc2cc(Cl)ccc21 (stereo not drawn) [Example 105, 2-(5-Chloro-2-oxo-2,3-dihydro-indol-1-yl)-4-methyl-pentanoic acid thiazol-2-ylamide] | 6.74 µM
12 | CC(C)CC(C(=O)Nc1cnccn1)N1C(=O)Cc2cc(Cl)ccc21 (stereo not drawn) [Example 106, 2-(5-Chloro-2-oxo-2,3-dihydro-indol-1-yl)-4-methyl-pentanoic acid pyrazin-2-ylamide] | 20.67 µM
13 | CC(C)CC(C(=O)Nc1ccccn1)N1C(=O)Cc2cc(Cl)ccc21 (stereo not drawn) [Example 108, 2-(5-Chloro-2-oxo-2,3-dihydro-indol-1-yl)-4-methyl-pentanoic acid pyridin-2-ylamide] | 4.95 µM
14 | CC(C)CC(C(=O)Nc1nccs1)N1C(=O)C(=O)c2ccc(Cl)cc21 (stereo not drawn) [Example 109, 2-(6-Chloro-2,3-dioxo-2,3-dihydro-indol-1-yl)-4-methyl-pentanoic acid thiazol-2-ylamide] | 3.29 µM
15 | CC(C)CC(C(=O)Nc1ccccn1)N1C(=O)C(=O)c2ccc(Cl)cc21 (stereo not drawn) [Example 110, 2-(6-Chloro-2,3-dioxo-2,3-dihydro-indol-1-yl)-4-methyl-pentanoic acid pyridin-2-ylamide] | 1.49 µM
16 | CC(C)CC(C(=O)Nc1ccn(C)n1)N1C(=O)C(=O)c2ccc(Cl)cc21 (stereo not drawn) [Example 111, 2-(6-Chloro-2,3-dioxo-2,3-dihydro-indol-1-yl)-4-methyl-pentanoic acid (1-methyl-1H-pyrazol-3-yl)-amide] | 15.93 µM
17 | CC(C)CC(C(=O)Nc1cnccn1)N1C(=O)C(=O)c2ccc(Cl)cc21 (stereo not drawn) [Example 112, 2-(6-Chloro-2,3-dioxo-2,3-dihydro-indol-1-yl)-4-methyl-pentanoic acid pyrazin-2-ylamide] | 4.85 µM
18 | CC(C)CC(C(=O)Nc1cnccn1)N1C(=O)Cc2ccc(Cl)cc21 (stereo not drawn) [Example 113, 2-(6-Chloro-2-oxo-2,3-dihydro-indol-1-yl)-4-methyl-pentanoic acid pyrazin-2-ylamide] | 2.64 µM
19 | CC(C)CC(C(=O)Nc1ccccn1)N1C(=O)Cc2ccc(Cl)cc21 (stereo not drawn) [Example 114, 2-(6-Chloro-2-oxo-2,3-dihydro-indol-1-yl)-4-methyl-pentanoic acid pyridin-2-ylamide] | 0.91 µM
20 | CC(C)CC(C(=O)Nc1nccs1)N1C(=O)Cc2ccc(Cl)cc21 (stereo not drawn) [Example 115, 2-(6-Chloro-2-oxo-2,3-dihydro-indol-1-yl)-4-methyl-pentanoic acid thiazol-2-ylamide] | 1.48 µM
21 | CC(C)CC(C(=O)Nc1ccn(C)n1)N1C(=O)Cc2ccc(Cl)cc21 (stereo not drawn) [Example 116, 2-(6-Chloro-2-oxo-2,3-dihydro-indol-1-yl)-4-methyl-pentanoic acid (1-methyl-1H-pyrazol-3-yl)-amide] | 7.27 µM
22 | O=C1C(=O)N(C(CC2CCCC2)C(=O)Nc2nccs2)c2cc(Cl)ccc21 (stereo not drawn) [Example 117, 2-(6-Chloro-2,3-dioxo-2,3-dihydro-indol-1-yl)-3-cyclopentyl-N-thiazol-2-yl-propionamide] | 0.6 µM
23 | O=C1C(=O)N(C(CC2CCCC2)C(=O)Nc2ccccn2)c2cc(Cl)ccc21 (stereo not drawn) [Example 118, 2-(6-chloro-2,3-dioxo-2,3-dihydro-indol-1-yl)-3-cyclopentyl-N-pyridin-2-yl-propionamide] | 0.23 µM
24 | Cn1ccc(NC(=O)C(CC2CCCC2)N2C(=O)C(=O)c3ccc(Cl)cc32)n1 (stereo not drawn) [Example 119, 2-(6-Chloro-2,3-dioxo-2,3-dihydro-indol-1-yl)-3-cyclopentyl-N-(1-methyl-1H-pyrazol-3-yl)-propionamide] | 2.24 µM
25 | O=C1C(=O)N(C(CC2CCCC2)C(=O)Nc2cnccn2)c2cc(Cl)ccc21 (stereo not drawn) [Example 120, 2-(6-Chloro-2,3-dioxo-2,3-dihydro-indol-1-yl)-3-cyclopentyl-N-pyrazin-2-yl-propionamide] | 0.9 µM
26 | O=C(Nc1cnccn1)C(CC1CCCC1)N1C(=O)Cc2ccc(Cl)cc21 (stereo not drawn) [Example 121, 2-(6-Chloro-2-oxo-2,3-dihydro-indol-1-yl)-3-cyclopentyl-N-pyrazin-2-yl-propionamide] | 0.38 µM

Same assay, conditions: @ 30 uM; 5 mM D-glucose, 30° C.

Row | Compound | fold induction at 30 µM
27 | CC(C)CC(C(=O)Nc1nccs1)N1C(=O)C(=O)c2cc(Cl)ccc21 (stereo not drawn) [Example 101, 2-(5-Chloro-2,3-dioxo-2,3-dihydro-indol-1-yl)-4-methyl-pentanoic acid thiazol-2-ylamide] | 1.4
28 | CC(C)CC(C(=O)Nc1cnccn1)N1C(=O)C(=O)c2cc(Cl)ccc21 (stereo not drawn) [Example 103, 2-(5-Chloro-2,3-dioxo-2,3-dihydro-indol-1-yl)-4-methyl-pentanoic acid pyrazin-2-ylamide] | 1.3
29 | CC(C)CC(C(=O)Nc1ccn(C)n1)N1C(=O)C(=O)c2cc(Cl)ccc21 (stereo not drawn) [Example 104, 2-(5-Chloro-2,3-dioxo-2,3-dihydro-indol-1-yl)-4-methyl-pentanoic acid (1-methyl-1H-pyrazol-3-yl)-amide] | 1.21
30 | CC(C)CC(C(=O)Nc1ccn(C)n1)N1C(=O)Cc2cc(Cl)ccc21 (stereo not drawn) [Example 107, 2-(5-Chloro-2-oxo-2,3-dihydro-indol-1-yl)-4-methyl-pentanoic acid (1-methyl-1H-pyrazol-3-yl)-amide] | 1.22

Source: US20120142705A1, “ISATIN AND OXINDOLE COMPOUNDS” (priority 2010, published 2012)
